The experiment relates to NCI-H716 cells. Put plainly: Active GLP-1 secretion amount of NCI-H716 cells cultured for one hour with the sample (ELISA). The format is cell-based, Human. The note with it: for Amount of active GLP-1, relative value (control regarded as 100), average value / Amount of Active GLP-1 (relative amount to control as 100), average value: 1 h. The text has this: As cyclic dipeptides: cyclo(glycyl-tyrosine) [Cyclo(Gly-Tyr)] (CGY) and cyclo(leucyl-phenylalanine) [Cyclo(Leu-Phe)] (CLF), and chemical synthesized preparations were used. Poly-L-Lysine 96-well plates were obtained from Becton Dickinson (BD). PBS (+), an antibiotic substance, Dulbecco's Modified Eagle's Medium (DMEM) and glucose used herein were obtained from Nacalai Tesque Inc.; sucralose, acesulfame potassium and aspartame from Wako Pure Chemical Industries Ltd.; active GLP-1 ELISA kit from Merck Millipore, Fetal bovine serum (FBS) from Sigma; and Sitagliptin phosphate from SantaCruz Biotechnology. Human intestinal cell strain, NCI-H716 cells used herein were provided by ATCC.
NCI-H716 cells, which were suspended in DMEM culture medium (containing 10% FBS, 2 mM glutamine, 1% antibiotic substance), were seeded in Poly-L-Lysine 96-well plates in an amount of 100 μL for each so as to contain 0.5×10^5 cells/well and cultured in a CO2 incubator (manufactured by ESPEC CORP.) for 48 hours.
Sweetening agent solutions were prepared each by adding a sweetening agent to PBS (+). In the case of glucose, a concentration was set at 3%, sucralose at 0.6%, acesulfame potassium at 0.3%, and aspartame at 0.3%. A cyclic dipeptide was dissolved in DMSO and then added to each of sweetening agent solutions so as to obtain final concentrations shown in Table 1 and Table 2. Note that, all cell addition solutions were prepared such that DMSO (0.1%) and a 10 μM Sitagliptin phosphate were contained.
After the cells were washed once with PBS (+), a reaction solution was added to the cells. One hour later, the solution added was recovered. Thereafter, the amount of active GLP-1 in the solution recovered was measured by using the ELISA kit. Analysis was carried out using relative values to the amount of active GLP-1 (regarded as 100) in a (sample) group to which neither sweetening agent nor cyclic dipeptide were added.
NCI-H716 cells, which were suspended in DMEM culture medium (containing 10% FBS, 2 mM glutamine, 1% antibiotic substance) were seeded in Poly-L-Lysine 96-well plates in an amount of 100 μL for each so as to contain 0.5×10^5 cells/well and cultured in an CO2 incubator (manufactured by ESPEC CORP.) for 48 hours. After the cells were washed with PBS (+), a PBS (+) solution already containing 10 μM Sitagliptin phosphate was controlled such that the final concentration of stevioside or RebA was 0.01%, and the final concentration of Cyclo(Leu-Phe) was 0.02 μg/mL or 2 μg/mL. The PBS (+) solution (100 μL) was individually added to the NCI-H716 cells. One hour later, the solution added was recovered and the amount of active GLP-1 in the solution was measured by the ELISA kit. Analysis was carried out based on relative values to the amount of active GLP-1 (regarded as 100) in a (sample) group to which neither a steviol glycoside not Cyclo(Leu-Phe) were added
The experiment was carried out in accordance with Example 2. A PBS (+) solution already containing 10 μM Sitagliptin phosphate was controlled such that the final concentration of RebD was 0.01%, and the final concentration of Cyclo(Gly-Tyr) was 0.01 μg/mL or 1 μg/mL. The PBS (+) solution (100 μL) was individually added to the NCI-H716 cells.
NCI-H716 cells, which were suspended in DMEM culture medium (containing 10% FBS, 2 mM glutamine, 1% antibiotic substance), were seeded in Poly-L-Lysine 96-well plates in an amount of 100 μL for each so as to add 0.5×10^5 cells/well and cultured in an CO2 incubator (manufactured by ESPEC CORP.) for 48 hours. After the cells were washed with PBS (+), a PBS (+) solution already containing 10 μM Sitagliptin phosphate was controlled such that the final concentration of stevioside, RebA or RebB was 0.001, 0.01 or 0.1%. The PBS (+) solution (100 μL) controlled such that the final concentration of RebC or RebD was 0.001 or 0.01% was added to the cells.
Background: ELISA stands for enzyme-linked immunosorbent assay.

The mark [1] stands for this setting: Example 4, steviol glycoside alone, 0.001 to 0.1% (RebC, RebD 0.001 or 0.01%).
Where [2] appears, read: Table 3, steviol glycoside 0.01% alone.
[3] abbreviates: Table 4, steviol glycoside 0.01% alone.
Where [4] appears, read: Table 5, final concentration 0.001%.
Where [5] appears, read: Table 5, final concentration 0.01%.
The mark [6] stands for this setting: Table 5, final concentration 0.1%.
Setting [7] is: steviol glycoside alone at a concentration of 0.01%.

Where a SMILES comes first, the peptide text is derived from it.

Regarding `COC(=O)[C@H](Cc1ccccc1)NC(=O)[C@@H](N)CC(=O)O` [Aspartame, aspartame] (H-Asp-Phe-OMe), the “Amount of active GLP-1, relative value (control regarded as 100), average value” (from here on “Amount of active GLP-1, relative value”) reads like this: (Table 1, aspartame 0.3% alone) 112; (Table 2, aspartame 0.3% alone) 129.
Consider `C=C1C[C@@]23CC[C@H]4[C@@](C)(CCC[C@@]4(C)C(=O)O[C@@H]4O[C@H](CO)[C@@H](O)[C@H](O)[C@H]4O)[C@@H]2CC[C@]1(O[C@@H]1O[C@H](CO)[C@@H](O)[C@H](O[C@@H]2O[C@H](CO)[C@@H](O)[C@H](O)[C@H]2O)[C@H]1O[C@@H]1O[C@H](CO)[C@@H](O)[C@H](O)[C@H]1O)C3` [RebA, rebaudioside A], for which the “GLP-1 secretion-accelerating action (in words)” value reads like this: under setting [1], “GLP-1 secretion-accelerating action can be obtained”; under setting [7], “not accelerated”. Also, the “Amount of Active GLP-1 (relative amount to control as 100), average value” under setting [2] is 72.6; the “Amount of Active GLP-1 (relative amount to control as 100), average value” under setting [3] came to 72.6; the “Amount of Active GLP-1 (relative amount to control as 100), average value” under setting [4] came out at 92.8; the “Amount of Active GLP-1 (relative amount to control as 100), average value” under setting [5] came to 129.3; the “Amount of Active GLP-1 (relative amount to control as 100), average value” under setting [6] came to 150.9.
For `C=C1C[C@@]23CC[C@H]4[C@@](C)(CCC[C@@]4(C)C(=O)O[C@@H]4O[C@H](CO)[C@@H](O)[C@H](O)[C@H]4O[C@@H]4O[C@H](CO)[C@@H](O)[C@H](O)[C@H]4O)[C@@H]2CC[C@]1(O[C@@H]1O[C@H](CO)[C@@H](O)[C@H](O[C@@H]2O[C@H](CO)[C@@H](O)[C@H](O)[C@H]2O)[C@H]1O[C@@H]1O[C@H](CO)[C@@H](O)[C@H](O)[C@H]1O)C3` [RebD, rebaudioside D], the “GLP-1 secretion-accelerating action (in words)” value runs as follows: under setting [1], “GLP-1 secretion-accelerating action can be obtained”; under setting [7], “not accelerated”. Moreover, the “Amount of Active GLP-1 (relative amount to control as 100), average value” runs as follows: under setting [4], 63.1; under setting [5], 170.0.
With `CC1=CC(=O)NS(=O)(=O)O1` [Acesulfame K, acesulfame potassium], the “Amount of active GLP-1, relative value” is, setting by setting: (Table 1, acesulfame K 0.3% alone) 125; (Table 2, acesulfame K 0.3% alone) 145.
In the case of cyclo(glycyl-tyrosine) [Cyclo(Gly-Tyr)], the “Amount of Active GLP-1 (relative amount to control as 100), average value” (Table 4, Cyclo(Gly-Tyr) 0.01 μg/mL alone) was 65.1.
As to `C=C1C[C@@]23CC[C@H]4[C@@](C)(CCC[C@@]4(C)C(=O)O[C@@H]4O[C@H](CO)[C@@H](O)[C@H](O)[C@H]4O)[C@@H]2CC[C@]1(O[C@@H]1O[C@H](CO)[C@@H](O)[C@H](O)[C@H]1O[C@@H]1O[C@H](CO)[C@@H](O)[C@H](O)[C@H]1O)C3` [Stevioside, stevioside], the “GLP-1 secretion-accelerating action (in words)” value is recorded as “GLP-1 secretion-accelerating action can be obtained” under setting [1] and “not accelerated” under setting [7]. For the same compound, the “Amount of Active GLP-1 (relative amount to control as 100), average value” reads like this: under setting [2], 62.7; under setting [3], 62.7; under setting [4], 104.9; under setting [5], 91.3; under setting [6], 160.9.
Turning to `OC[C@H]1O[C@H](O[C@]2(CCl)O[C@H](CCl)[C@@H](O)[C@@H]2O)[C@H](O)[C@@H](O)[C@H]1Cl` [Sucralose, sucralose], the “Amount of active GLP-1, relative value” (Table 1, sucralose 0.6% alone) came to 206 and the “Amount of active GLP-1, relative value” (Table 2, sucralose 0.6% alone) stood at 233.
On to “cyclo(leucyl-phenylalanine) [Cyclo(Leu-Phe)]”, for which the “Amount of Active GLP-1 (relative amount to control as 100), average value” came to 65.1 (Table 3, Cyclo(Leu-Phe) 0.02 μg/mL alone); 59.9 (Table 3, Cyclo(Leu-Phe) 2 μg/mL alone); 59.9 (Table 4, head prints Cyclo(Leu-Phe) 1 μg/mL alone).
As for rebaudioside C [RebC], under setting [1], the “GLP-1 secretion-accelerating action (in words)” value is “GLP-1 secretion-accelerating action was not observed”. In addition, the “Amount of Active GLP-1 (relative amount to control as 100), average value” is 52.8 under setting [4] and 55.0 under setting [5].
rebaudioside B [RebB]: the “GLP-1 secretion-accelerating action (in words)” value under setting [1] is recorded as “GLP-1 secretion-accelerating action can be obtained”. In addition, the “Amount of Active GLP-1 (relative amount to control as 100), average value” is 82.0 under setting [4], 70.5 under setting [5] and 151.2 under setting [6].

The values are drawn from patent US11219663B2, “Composition containing cyclic dipeptide and sweetening agent” (SUNTORY HOLDINGS LIMITED, priority 2015, dated 2022).
